Results published in patent US4624950A, “Method for treating atherosclerosis hyperlipidema, lipid deposition on arterial walls, or raising the ratio of high density lipoprotein cholesterol to total cholesterol in serum” (Nissan Chemical Industries Ltd., priority 1983, dated 1986).
Read-outs that look alike come from different tables or passages of the source.

Experiments:
[1] = test system: Salmonella (TA98, TA100, TA1535 and TA1538); assay: Mutagenicity test, Salmonella (Test 6); details: up to 5000 μg/Plate, absence or presence of S-9 mix of rat liver
Description: The mutagenicity was tested by using Escherichia coli (WP2UVrA) and Salmonella (TA98, TA100, TA1535 and TA1538) in the absence or presence of a drug metabolizing enzymes S-9 mix of rat liver.

[2] = Acute toxicity test (Test 7); details: mouse, in vivo, mortality after seven days, read-out: Acute toxicity: dose up to which no toxicity was shown
Description: The test compounds suspended in 0.5% CMC-Na were administered p.o. or injected i.p. to male ddY mice. The acute toxicity was dertermined based on the mortality after seven days.

[3] = test system: emulsion-induced hyperlipidemic rats; assay: Antihyperlipidemic activity in emulsion-induced hyperlipidemic rats (Test 1); type: in vivo, rat (male S.D.); details: 300 mg/kg/day p.o., 3 days
Description: The daily dose of the compound of the formula I is from 0.01 to 3.0 g, preferably from 0.1 to 1.5 g, for an adult. It is administered from once to three times per day. The dose may of course be varied depending upon the age, the weight or the condition of illness of the patient. Now, the usefulness of the compound of the formula I as an antiatherosclerotic agent will be shown by tests. In the following tests, the fractionation of lipoproteins was conducted by a dextran sulfate-MgCl2 precipitation method.
Cholesterol in serum was measured by means of a cholesterol measuring kit (Cholesterol C-Test Wako, manufactured by Wako Junyaku Co., Ltd.), and cholesterol in HDL was measured by means of NC Hi-Set, manufactured by Nippon Chemiphar Co., Ltd. The quantitative analysis of triglyceride was conducted by means of a triglyceride measuring kit (Triglyceride C-II-Test Wako, manufactured by Wako Junyaku Co., Ltd.).
Further, the change rate in the following Tables, was calculated by the following equation.
Change rate(%)=(A-B/A)×100
where A is the amount of serum lipids (mg/dl) of the control group, and B is the amount of serum lipids (mg/dl) of the group to which the therapeutic agent was administered.
The antihyperlipidemic activity in emulsion-induced hyperlipidemic rats
Male S.D. rats weighing 80-90 g (4 weeks old) were used. They were divided into groups of 5 to 6 rats each. The test compounds suspended in 0.5% CMC-Na(carboxymethyl cellulose sodium salt) were given to the rats in a daily dose of 4 ml/kg via stomach tube every 10:00 a.m. After 30 min., lipids emulsion having the following composition was orally given to the rats in an amount of 2.5 ml per rat. During the experimental period of 3 days, the rats were fed on a standard commercial diet and water ad libitum. […] The total cholesterol and triglyceride, and HDL cholesterol were measured.

cytochrome P-450 = assay: Effect on cytochrome P-450 / hepatic drug metabolizing systems of normal rats (Test 5); type: in vivo, rat (male S.D.); details: 300 mg/kg/day, seven days
Description: The activities against serum lipid, the degree of hepatomegaly and the hepatic drug metabolizing systems of normal rats
Male S.D. rats (6 weeks old) were divided into groups of 5 rats each. The test compounds suspended in 5% gum arabic were given to the rats once a day for seven days in a daily dose of 300 mg/kg. Then, the rats were fasted for one day, blood samples were taken, and the total cholesterol, triglyceride, HDL-cholesterol in the serum were quantitatively analyzed. Further, the liver weight was measured, and the degree of hepatomegaly was determined by comparing the weight ratio per 100 g of the body weight with that of the control group. Furthermore, GOT and GPT values were measured, and the activities of cytochrome P-450 and glutathione related enzymes were also measured. These values were compared with those of the control groups to investigate any abnormality.

CN1C(=S)SC(c2ccccc2)N(C)C1c1ccccc1 (stereo not shown) [Compound of the formula I, 3,5-dimethyl-4,6-diphenyl-tetrahydro-2H-1,3,5-thiadiazine-2-thione]
Mutagenicity [1]: did not show any mutagenicity
NOAEL at 168 h ([2]; ip, abdominal (i.p.) administration): ≥ 4000 mg/kg
NOAEL at 168 h ([2]; oral administration): ≥ 8000 mg/kg
Serum lipid, HDL-Chol [3]: 22.1 mg/dL
Serum lipid, TG [3]: 97.4 mg/dL
Serum lipid, Total Chol [3]: 145 mg/dL
Change rate, HDL-Chol ([3]; vs control): +80.6%
Change rate, TG ([3]; vs control): -36%
Change rate, Total Chol ([3]; vs control): -45.0%
Abnormalities in activity against cytochrome P-450 or other liver microsome drug metabolizing systems (in words) (cytochrome P-450): no abnormalities were observed
